Laboratory results taken from PubChem BioAssay (NCI).
“And” between values parts separate entries of the source, which are not always exact repeats. Equal values may be shown once.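 Exposure lasted 48 hours, with cells grown in 96-well plates and compounds tested at five concentrations. GI50 = concentration required for 50% inhibition of growth. TGI: total growth inhibition.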 Where a SMILES comes first, the peptide text is derived from it. Side-chain parts run from the residue outwards. The star is where a group is joined. Cbz = O=C(OCc1ccccc1)*; Boc = CC(C)(C)OC(=O)*

Key:
Assay in all cases: growth of human tumour cells (NCI), 48 h
ACHN renal = system: ACHN renal
RPMI-8226 leukemia = system: RPMI-8226 leukemia
SF-268 CNS = system: SF-268 CNS
SK-MEL-5 melanoma = system: SK-MEL-5 melanoma
U251 CNS = system: U251 CNS
UO-31 renal = system: UO-31 renal
HS 578T breast = system: HS 578T breast
MDA-MB-231 breast = system: MDA-MB-231 breast
MDA-N = system: MDA-N
MCF7 breast = system: MCF7 breast
BT-549 breast = system: BT-549 breast

Structure (SMILES)	TGI (ACHN renal) [µM]	TGI (RPMI-8226 leukemia) [µM]	TGI (SF-268 CNS)	TGI (SK-MEL-5 melanoma) [µM]	TGI (U251 CNS) [µM]	TGI (UO-31 renal) [µM]	TGI (HS 578T breast) [µM]	TGI (MDA-MB-231 breast)	TGI (MDA-N)	TGI (MCF7 breast) [µM]	GI50 (HS 578T breast) [µM]	GI50 (MDA-MB-231 breast) [µM]	GI50 (UO-31 renal) [µM]	TGI (BT-549 breast) [µM]	GI50 (ACHN renal) [µM]	GI50 (MCF7 breast) [µM]	GI50 (RPMI-8226 leukemia) [µM]	GI50 (SF-268 CNS) [µM]	GI50 (SK-MEL-5 melanoma) [µM]	GI50 (U251 CNS) [µM]
CC(=O)OCCOCNC(=S)N/N=C(\C)c1cccs1	> 100	> 100	> 100 µM	> 100	> 100	> 100														
COc1ccc(CCCN2c3ccccc3Sc3ccccc32)cc1	> 100	> 100	> 100 µM	> 100	> 100	> 100														
Cc1ccc(N=C2SC(=NN(C)C)SC2=Nc2ccc(C)cc2)cc1	> 100	> 100	> 100 µM	> 100	> 100	> 100	> 100	> 100 µM	> 100 µM											
O=C(CSCC(=O)N/N=C\c1ccccc1F)N/N=C\c1ccccc1F	> 100	> 100	> 100 µM	> 100	> 100	> 100	> 100	> 100 µM		> 100										
Cc1c2oc3c(C)cc(F)c(C(=O)NC4C(=O)NC(C(C)C)C(=O)N5CCCC5C(=O)N(C)CC(=O)N(C)C(C(C)C)C(=O)OC4C)c3nc-2c(C(=O)NC2C(=O)NC(C(C)C)C(=O)N3CCCC3C(=O)N(C)CC(=O)N(C)C(C(C)C)C(=O)OC2C)c(N)c1=O (configuration not stated)	32.5		4.21 µM and 15.3 µM	0.223	25.9	4.65	> 100	6.8 µM and 2.45 µM	1.32 µM and 1.12 µM	60.6	0.5	0.0186	0.458							
C=CCOCn1ccc(N)nc1=O		> 100	> 100 µM	> 100		> 100	> 100	> 100 µM	> 100 µM	> 100				> 100						
O=S1(=O)OCCCOS(=O)(=O)C1(Br)Br	> 100	> 100	> 100 µM	> 100	> 100	> 100	> 100		> 100 µM	> 100				> 100						
COc1ccc(N2C(=O)C3c4[nH]c5ccccc5c4C4c5ccccc5CC4C3C2=O)cc1 (configuration not stated)	> 100		> 100 µM		> 100	> 100		> 100 µM	> 100 µM	> 100				> 100						
N#Cc1c(N2CCCC2)nsc1Nc1ccc(F)cc1	> 100	> 100	> 100 µM	> 100	> 100		> 100	> 100 µM	> 100 µM											
CN(C)C=NCC(O)c1ccccc1 (configuration not stated)	> 100	> 100	> 100 µM	> 100		> 100	> 100	> 100 µM	> 100 µM	> 100				> 100						
COc1cc2[nH]c(=O)c3cc(C)cc4c(Cl)nc(c1OC)c2c43	> 100	> 100	84.8 µM	> 100	> 100	> 100		> 100 µM	> 100 µM	> 100				> 100						
c1ccc2c(c1)Sc1ccccc1N2C1CN2CCC1CC2 (configuration not stated)	36.1	43.4	63 µM	29.9	30.9	39.6														
OCC1OC(c2ccccc2)CC1O (configuration not stated)	> 100			> 100	> 100	> 100		> 100 µM		> 100										
NCCS(=O)(=O)O	> 100	> 100	> 100 µM	> 100	> 100	> 100	> 100	> 100 µM	> 100 µM	> 100										
O=c1[nH]nc(Cc2ccc(Cl)cc2)n1/N=C/c1c[nH]c2ccccc12	> 100	> 100	> 100 µM	> 100	> 100	> 100	> 100	> 100 µM	> 100 µM	> 100										
N#CCc1nc2cc(C(F)(F)F)ccc2s1	> 100	> 100	> 100 µM	> 100	> 100			> 100 µM	> 100 µM					> 100						
Cc1cc2oc3c(ccc(=O)n3C)c(=O)c2c(C)c1Cl	> 100		> 100 µM	> 100	> 100	> 100	93	> 100 µM	> 100 µM											
O=c1[nH]c(=O)n(COCc2ccccc2)c2ccccc12	> 100			> 100	> 100	> 100		> 100 µM	> 100 µM	> 100										
COc1ccc(C2=C(Cl)c3cc(OC)c(OC)cc3C2)cc1OC	> 100	> 100	> 100 µM	> 100	> 100	> 100														
CS(=O)(=O)OCC1CCCCCCCCCCC12SCCCS2 (configuration not stated)	> 100		> 100 µM	> 100	> 100	> 100	> 100	> 100 µM	> 100 µM	> 100										
O=NN1C(c2ccccc2)CCCC1c1ccccc1 (configuration not stated)		> 100	> 100 µM	> 100	> 100	> 100				> 100										
CC1=NN(C(=O)Cc2ccccc2)C(=O)/C1=C\c1ccccc1O	> 100	> 100	> 100 µM	> 100	> 100	> 100														
COc1ccc(C2=NNC(c3cc4cc(Br)ccc4nc3Cl)C2)cc1 (configuration not stated)	> 25	> 25				> 25	24.2		17.8 µM	> 25				> 25						

Structure (SMILES)	TGI (ACHN renal) [µM]	TGI (RPMI-8226 leukemia) [µM]	TGI (SF-268 CNS)	TGI (SK-MEL-5 melanoma) [µM]	TGI (U251 CNS) [µM]	TGI (UO-31 renal) [µM]	TGI (HS 578T breast) [µM]	TGI (MDA-MB-231 breast)	TGI (MDA-N)	TGI (MCF7 breast) [µM]	GI50 (HS 578T breast) [µM]	GI50 (MDA-MB-231 breast) [µM]	GI50 (UO-31 renal) [µM]	TGI (BT-549 breast) [µM]	GI50 (ACHN renal) [µM]	GI50 (MCF7 breast) [µM]	GI50 (RPMI-8226 leukemia) [µM]	GI50 (SF-268 CNS) [µM]	GI50 (SK-MEL-5 melanoma) [µM]	GI50 (U251 CNS) [µM]
Cn1nc2ccc3nccc(NCCNCCO)c3c2n1	> 100	> 100	> 100 µM	> 100	> 100	90.9														
CC(=O)c1[nH]c(Nc2ccc(C)cc2)c(C(=S)Nc2ccccc2)c1N	36.2		30.2 µM	31	29.9	28.4	52.3	35.7 µM	37.2 µM	30.6				31.6						
C[C@]12CC[C@H](O)CC1=CC[C@@H]1[C@@H]2CC[C@]2(C)C(=O)/C(=C/c3ccc([N+](=O)[O-])cc3)C[C@@H]12	33.4	> 100	21.5 µM	43.5		28	29.5		> 100 µM	> 100				57.5						
Cn1c(COC(=O)NC2CCCCC2)c(COC(=O)NC2CCCCC2)c2ccc3cc(C=O)ccc3c21	> 100		> 100 µM	> 100	87.5	> 100	> 100	> 100 µM	> 100 µM	> 100				> 100						
CC1=CC(=O)/C(=C/n2c(=S)[nH]c3cc(C)ccc32)C(=O)O1	> 100		> 100 µM	> 100	> 100	> 100	> 100	> 100 µM	> 100 µM	> 100				> 100						
COc1cc(/C(=C2/O[C@@H]([C@H]3COC(C)(C)O3)[C@H]3OC(C)(C)O[C@@H]23)c2ccc3c(c2)OCO3)cc(OC)c1OC	> 25	> 25	> 25 µM	> 25	> 25	> 25	> 25	> 25 µM		> 25	> 25	> 25	> 25		4.68	> 25	> 25	> 25	13	> 25
O=C1c2cccnc2-c2nccc3c2c1nc1ccc(Br)cc13	0.0957		0.143 µM	0.0887	0.147	0.202		0.211 µM	0.249 µM	< 0.03				0.176						
C[N+]1([O-])[C@H]2CC(OC(=O)[C@H](CO)c3ccccc3)C[C@H]1[C@H]1O[C@H]12 (some centres not stated)	> 100	> 100		> 100	> 100	> 100	> 100	> 100 µM	> 100 µM	> 100				> 100						
O=C(CC(c1ccccc1)C(C(=O)c1ccncc1)C(CC(=O)c1ccncc1)c1ccccc1)c1ccncc1 (configuration not stated)	> 100	> 100	> 100 µM		> 100	> 100	> 100	> 100 µM						57.3						
O=C(Nc1ccc(Sc2ccc(N=Nc3c(O)c(S(=O)(=O)O)cc4cc(S(=O)(=O)O)ccc34)cc2)cc1)c1ccc(N=Nc2c(O)c(S(=O)(=O)O)cc3cc(S(=O)(=O)O)ccc23)cc1	> 100	56.2	> 100 µM	53.9	> 100	> 100														
CO[C@]12CC(=O)C3(C(C[C@H]4CC5CC[C@H]6C[C@@H](OC(C)=O)CC[C@]6(OC(C)=O)C5C[C@@]43C)C1)C1C[C@H]3[C@@H]4CC[C@H]5C[C@@H](OC(C)=O)CC[C@]5(OC(C)=O)[C@H]4CC[C@]3(C)C12 (some centres not stated)	> 100	> 100	> 100 µM	> 100	> 100	> 100	> 100	> 100 µM	> 100 µM	> 100										
N#Cc1ccc2[nH]c3c(c2c1)CC(=O)Nc1ccccc1-3	> 100	> 100	> 100 µM	> 100	> 100	> 100	> 100	> 100 µM		> 100				> 100						
O=C(NN1C(=O)C(Cl)C1c1ccccc1Cl)c1ccccc1O (configuration not stated)	> 100		> 100 µM	> 100	> 100	> 100														
O=C(c1ccccc1O)c1cc(-c2ncc3c(=O)c4ccccc4oc3n2)c(-c2ccccc2O)[nH]c1=O		60.4	> 75.9 µM	25.8	27.7	> 79.7				34.2										
O=C(c1ccccc1)c1c(C(F)(F)F)n([O-])c2cc(F)c(F)cc2[n+]1=O	0.232	> 100	2.45 µM	3.33		2.4	2.48			1.71										
COc1cc(O)cc(O)c1C(=O)CC(Cl)(Cl)Cl	> 100	> 100	> 100 µM	> 100	> 100	> 100	> 100	> 100 µM		> 100				> 100						
COc1cc2c(c(OC)c1OC)-c1ccc(SC)c(=O)cc1[C@@H](NCc1cccc([N+](=O)[O-])c1)CC2	> 100		28 µM		< 0.01	> 100														
C[N+](C)(C)CC(CC(=O)[O-])C1CC1 (configuration not stated)	> 100	> 100	> 100 µM	> 100	> 100	> 100														
COc1cccc([C@@H]2CC(=O)c3cc4c(cc3N2)OCO4)c1	> 100	> 100	> 100 µM	> 100	> 100	> 100	> 100	> 100 µM	> 100 µM	> 100										
CC(C)(C)OC(=O)NC(CCCCNC(=O)CNC(=O)OCc1ccccc1)C(=O)NC(CCCCNC(=O)CNC(=O)OCc1ccccc1)C(=O)NC(CCCCNC(=O)CNC(=O)OCc1ccccc1)C(=O)NC(CCCCNC(=O)CNC(=O)OCc1ccccc1)C(=O)O (configuration not stated) (Boc-K([Gly-Cbz])K([Gly-Cbz])K([Gly-Cbz])K([Gly-Cbz])-OH; configuration not given here)	> 100	> 100	> 100 µM	> 100	> 100	> 100		> 100 µM	> 100 µM	> 100				> 100						
Cc1ccc(NC(=O)/C(=N/NC(=O)C[N+](C)(C)C)c2nc3ccccc3[nH]c2=O)cc1	> 100	> 100	> 100 µM	> 100	85.3	> 100														
Cn1cnc(SC2=C3C(=O)C=C4S[C@H]5C[C@]42c2c(c(O)c4c6c2=[N+]3CCC=6C=N4)N5)c1CC(N)C(=O)O (some centres not stated)	29.5	55.7	25.1 µM	26.4	31.3	37.6														
